Here are results for 54 molecules from the supplement of paper PMC12317010.

Molecules are shown by their SMILES. Where a name gives a salt, the structure may show the parent alone.

The nature of the series: collision cross section in nitrogen (drift tube, single-field); higher = larger gas-phase ion size.
Where [1] appears, read: ion type: [M+Na], ion source: ESI, ion mode: Positive.
[2] abbreviates: ion type: [M-H], ion source: ESI, ion mode: Negative.
The mark [3] stands for this setting: ion source: ESI, ion mode: Positive, ion type: [M]+ (permanent cation).
Where [4] appears, read: ion type: [M+H], ion source: APCI, ion mode: Positive.
[5] abbreviates: ion type: [M+H], ion source: ESI, ion mode: Positive.
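Further: chemical standards at 10 µM analysed by drift tube IMS-QTOF MS in about 3.95 torr nitrogen, mean of duplicate injections differing ≤1%, mass error below 10 ppm.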

On to `CCCCOC(=O)c1ccccc1C(=O)OCc1ccccc1` [Benzyl butyl phthalate], for which the “collision cross section in nitrogen” value under setting [1] is reported as 178.3 Å².

For `O=C(OCc1ccccc1)c1ccccc1O` [Benzyl salicylate], the “collision cross section in nitrogen” value under setting [2] was 153.3 Å².

For the molecule `CC[N+](CC)(CC)Cc1ccccc1` [Benzyl trialkyl ammonium compound C2:C2:C2 (BTAAC C2:C2:C2)], the “collision cross section in nitrogen” value under setting [3] came out at 143.1 Å².

Take `CCCCC(CC)COC(=O)CCCCC(=O)OCc1ccccc1` (stereo not given) [Benzyloctyl adipate]: the “collision cross section in nitrogen” value under setting [1] is reported as 191.9 Å².

For the molecule `C[N+](C)(C)Cc1ccccc1` [Benzyltrimethylammonium chloride], the “collision cross section in nitrogen” value under setting [3] is listed as 131.9 Å².

For the molecule `C[N+](C)(C)Cc1ccccc1` [Benzyltrimethylammonium hydroxide], under setting [3], the “collision cross section in nitrogen” value was found to be 131.3 Å².

With `O=c1[nH]c2ccc(S(=O)CCN3CCC(Cc4ccc(F)cc4)CC3)cc2o1` (stereo not given) [Besonprodil], the “collision cross section in nitrogen” value by setting is: under setting [4], 203.6 Å²; under setting [5], 203.4 Å²; under setting [1], 202 Å²; under setting [2], 188.5 Å².

With `C[N+](C)(C)CC(=O)[O-]` [Betaine], the “collision cross section in nitrogen” value under setting [5] turned out to be 121.4 Å² and the “collision cross section in nitrogen” value under setting [1] came to 133.3 Å².

Regarding `C[C@H]1C[C@H]2[C@@H]3CCC4=CC(=O)C=C[C@]4(C)[C@@]3(F)[C@@H](O)C[C@]2(C)[C@@]1(O)C(=O)COP(=O)(O)O` [Betamethasone 21-phosphate disodium], the “collision cross section in nitrogen” value is 211.7 Å² under setting [1] and 199.8 Å² under setting [2].

Consider `CCCCC(=O)O[C@]1(C(=O)CO)[C@@H](C)C[C@H]2[C@@H]3CCC4=CC(=O)C=C[C@]4(C)[C@@]3(F)[C@@H](O)C[C@@]21C` [Betamethasone valerate], for which, under setting [2], the “collision cross section in nitrogen” value amounted to 215.5 Å².

Consider `C[C@H]1C[C@H]2[C@@H]3CCC4=CC(=O)C=C[C@]4(C)[C@@]3(F)[C@@H](O)C[C@]2(C)[C@@]1(O)C(=O)CO` [Betamethasone], for which the “collision cross section in nitrogen” value is, setting by setting: under setting [5], 177.2 Å²; under setting [1], 215.2 Å².

As for `C=C(c1ccc(C(=O)O)cc1)c1cc2c(cc1C)C(C)(C)CCC2(C)C` [Bexarotene], the “collision cross section in nitrogen” value under setting [2] is given as 208.7 Å².

As to `CC(C)(Oc1ccc(CCNC(=O)c2ccc(Cl)cc2)cc1)C(=O)O` [Bezafibrate], the “collision cross section in nitrogen” value is recorded as 178.5 Å² under setting [4], 177.8 Å² under setting [5] and 189 Å² under setting [1].

In the case of `COc1ccc(-c2ccccc2)cc1NNC(=O)OC(C)C` [Bifenazate], under setting [1], the “collision cross section in nitrogen” value is 185.7 Å².

For `COc1ccc(-c2coc3cc(O)cc(O)c3c2=O)cc1` [Biochanin A], the “collision cross section in nitrogen” value stood at 164.6 Å² under setting [4], 164.1 Å² under setting [5], 175 Å² under setting [1] and 168 Å² under setting [2].

Regarding `CC(C)=C[C@@H]1[C@@H](C(=O)OCc2coc(Cc3ccccc3)c2)C1(C)C` [Bioresmethrin], the “collision cross section in nitrogen” value under setting [1] is 188.3 Å².

For the molecule `O=C(O)CCCC[C@@H]1SC[C@H]2NC(=O)N[C@@H]12` [Biotin], the “collision cross section in nitrogen” value turned out to be 149.9 Å² under setting [4], 149.3 Å² under setting [5], 159.6 Å² under setting [1] and 155.5 Å² under setting [2].

Turning to `CC(C)c1cccc(C(C)C)c1N=C=Nc1c(C(C)C)cccc1C(C)C` [Bis(2,6-diisopropylphenyl)carbodiimide], the “collision cross section in nitrogen” value under setting [4] is listed as 189.6 Å² and the “collision cross section in nitrogen” value under setting [5] is 190.5 Å².

As for `CCCCOCCOC(=O)CCCCCCCCC(=O)OCCOCCCC` [Bis(2-butoxyethyl) decanedioate], the “collision cross section in nitrogen” value under setting [1] is listed as 197.8 Å².

On to `CCCCOCCOC(=O)c1ccccc1C(=O)OCCOCCCC` [Bis(2-butoxyethyl) phthalate], for which the “collision cross section in nitrogen” value under setting [1] amounted to 187.5 Å².

For `CCCCC(CC)COC(=O)CCCCCCCCC(=O)OCC(CC)CCCC` (stereo not given) [Bis(2-ethylhexyl) decanedioate], the “collision cross section in nitrogen” value under setting [1] stood at 224.2 Å².

On to `CCCCC(CC)COC(=O)/C=C\C(=O)OCC(CC)CCCC` (stereo not given) [Bis(2-ethylhexyl) maleate], for which the “collision cross section in nitrogen” value under setting [1] is reported as 207.2 Å².

For the molecule `CCCCC(CC)COC(=O)CCCCCCCC(=O)OCC(CC)CCCC` (stereo not given) [Bis(2-ethylhexyl) nonanedioate], the “collision cross section in nitrogen” value under setting [1] came to 222.3 Å².

In the case of `CCCCC(CC)COP(=O)(O)OCC(CC)CCCC` (stereo not given) [Bis(2-ethylhexyl) phosphate], the “collision cross section in nitrogen” value runs as follows: under setting [1], 201 Å²; under setting [2], 187 Å².

For `CCCCC(CC)COC(=O)c1c(Br)c(Br)c(Br)c(Br)c1C(=O)OCC(CC)CCCC` (stereo not given) [Bis(2-ethylhexyl) tetrabromophthalate], under setting [1], the “collision cross section in nitrogen” value was 240.6 Å².

Consider `CCCCC(CC)COC(=O)CCCCC(=O)OCC(CC)CCCC` (stereo not given) [Bis(2-ethylhexyl)hexanedioate], for which the “collision cross section in nitrogen” value under setting [1] was 216.5 Å².

In the case of `CC(CCOC(=O)c1ccccc1C(=O)OCC[C@@H](C)CC(C)(C)C)CC(C)(C)C` (stereo not given in full) [Bis(3,5,5-trimethylhexyl) phthalate], under setting [1], the “collision cross section in nitrogen” value was 219.6 Å².

In the case of `CN(C)c1ccc(C(=O)c2ccc(N(C)C)cc2)cc1` [Bis(4-(dimethylamino)phenyl)methanone], the “collision cross section in nitrogen” value reads like this: under setting [4], 166.8 Å²; under setting [5], 166.5 Å²; under setting [1], 175.8 Å².

As for `Oc1ccc(Cc2ccc(O)cc2)cc1` [Bis(4-hydroxyphenyl)methane], the “collision cross section in nitrogen” value under setting [2] came to 153.6 Å².

In the case of `C=C(C)C(=O)OCCOP(=O)(O)OCCOC(=O)C(=C)C` [Bis(methacryloyloxyethyl) hydrogen phosphate], under setting [1], the “collision cross section in nitrogen” value was 169.5 Å².

On to `CC(C)(c1ccc(O)c(-c2ccccc2)c1)c1ccc(O)c(-c2ccccc2)c1` [BisOPP-A], for which, under setting [2], the “collision cross section in nitrogen” value turned out to be 204 Å².

As to `CCCCOCCOCCOC(=O)CCCCC(=O)OCCOCCOCCCC` [Bis[2-(2-butoxyethoxy)ethyl] adipate], the “collision cross section in nitrogen” value by setting is: under setting [4], 203.8 Å²; under setting [5], 205.4 Å²; under setting [1], 198.8 Å².

For `c1cc(OCC2CO2)ccc1Cc1ccc(OCC2CO2)cc1` (stereo not given) [Bis[4-(glycidyloxy)phenyl]methane], the “collision cross section in nitrogen” value under setting [1] turned out to be 169 Å².

On to `O=C1C=CC(=O)N1c1ccc(Cc2ccc(N3C(=O)C=CC3=O)cc2)cc1` [Bismaleimide], for which the “collision cross section in nitrogen” value is, setting by setting: under setting [4], 197.5 Å²; under setting [1], 182.7 Å²; under setting [2], 174.3 Å².

Take `CC(C)(c1ccc(OCC2CO2)cc1)c1ccc(OCC2CO2)cc1` (stereo not given) [Bisphenol A diglycidyl ether]: under setting [1], the “collision cross section in nitrogen” value was 176.7 Å².

For `C=C(C)C(=O)OCC(O)COc1ccc(C(C)(C)c2ccc(OCC(O)COC(=O)C(=C)C)cc2)cc1` (stereo not given) [Bisphenol A glycidyl methacrylate], under setting [1], the “collision cross section in nitrogen” value amounted to 215.5 Å².

`Oc1ccc(C(c2ccc(O)cc2)(C(F)(F)F)C(F)(F)F)cc1` [Bisphenol AF]: the “collision cross section in nitrogen” value under setting [2] was 165.6 Å².

As to `CC(C)(c1ccc(O)cc1)c1ccc(O)cc1` [Bisphenol A], the “collision cross section in nitrogen” value under setting [2] was found to be 161.9 Å².

In the case of `CCC(C)(c1ccc(O)cc1)c1ccc(O)cc1` [Bisphenol B], under setting [2], the “collision cross section in nitrogen” value was 165.8 Å².

Turning to `CC(c1ccc(O)cc1)c1ccc(O)cc1` [Bisphenol E], under setting [2], the “collision cross section in nitrogen” value turned out to be 158.3 Å².

For `CC(C)(c1ccc(O)cc1)c1ccc(C(C)(C)c2ccc(O)cc2)cc1` [Bisphenol P], the “collision cross section in nitrogen” value under setting [2] was found to be 180.1 Å².

As for `COc1cc(OC)nc(Oc2cccc(Oc3nc(OC)cc(OC)n3)c2C(=O)O)n1` [Bispyribac-sodium], the “collision cross section in nitrogen” value runs as follows: under setting [4], 198.3 Å²; under setting [5], 198.5 Å²; under setting [1], 198.6 Å²; under setting [2], 187.4 Å².

For the molecule `Oc1c(Cl)cc(Cl)cc1Sc1cc(Cl)cc(Cl)c1O` [Bithionol], the “collision cross section in nitrogen” value by setting is: under setting [5], 154.7 Å²; under setting [2], 168.8 Å².

Take `O=C(Nc1ccccc1-c1ccc(Cl)cc1)c1cccnc1Cl` [Boscalid]: the “collision cross section in nitrogen” value under setting [5] was 175.5 Å² and the “collision cross section in nitrogen” value under setting [2] came to 177.1 Å².

Consider `COc1ccccc1Oc1c(NS(=O)(=O)c2ccc(C(C)(C)C)cc2)nc(-c2ncccn2)nc1OCCO` [Bosentan hydrate], for which the “collision cross section in nitrogen” value is, setting by setting: under setting [4], 229.9 Å²; under setting [5], 229.4 Å²; under setting [1], 234.4 Å²; under setting [2], 232.9 Å².

`CCC(C)n1c(=O)[nH]c(C)c(Br)c1=O` (stereo not given) [Bromacil]: the “collision cross section in nitrogen” value under setting [2] is recorded as 146.6 Å².

`O=c1oc2ccccc2c(O)c1C(CC(O)c1ccc(-c2ccc(Br)cc2)cc1)c1ccccc1` (stereo not given) [Bromadiolone]: the “collision cross section in nitrogen” value reads like this: under setting [1], 239.5 Å²; under setting [2], 215.1 Å².

In the case of `Nc1c(S(=O)(=O)O)cc(Br)c2c1C(=O)c1ccccc1C2=O` [Bromamine acid sodium salt], under setting [2], the “collision cross section in nitrogen” value came to 169.2 Å².

With `Cc1c(C2(c3cc(Br)c(O)c(Br)c3C)OS(=O)(=O)c3ccccc32)cc(Br)c(O)c1Br` [Bromcresol green], the “collision cross section in nitrogen” value under setting [2] amounted to 217 Å².

With `CC(C)C[C@H]1C(=O)N2CCC[C@H]2[C@]2(O)O[C@](NC(=O)[C@@H]3C=C4c5cccc6[nH]c(Br)c(c56)C[C@H]4N(C)C3)(C(C)C)C(=O)N12` [Bromocriptine mesylate], the “collision cross section in nitrogen” value by setting is: under setting [4], 242.9 Å²; under setting [5], 247.4 Å²; under setting [1], 248.5 Å²; under setting [2], 251.7 Å².

For `O=S1(=O)OC(c2cc(Br)c(O)c(Br)c2)(c2cc(Br)c(O)c(Br)c2)c2ccccc21` [Bromophenol blue], the “collision cross section in nitrogen” value under setting [2] is 214.2 Å².

For `N#Cc1cc(Br)c(O)c(Br)c1` [Bromoxynil], under setting [2], the “collision cross section in nitrogen” value is reported as 131.2 Å².

Turning to `CN(C)CCC(c1ccc(Br)cc1)c1ccccn1` (stereo not given) [Brompheniramine hydrogen maleate], the “collision cross section in nitrogen” value runs as follows: under setting [4], 167.1 Å²; under setting [5], 167.8 Å².

Turning to `Clc1ccc(C2(Cn3cncn3)CC(Br)CO2)c(Cl)c1` (stereo not given) [Bromuconazole], the “collision cross section in nitrogen” value under setting [4] is listed as 172.7 Å² and the “collision cross section in nitrogen” value under setting [5] was found to be 172.6 Å².
